# Assay results taken from PubChem BioAssay AID1208 (EPA DSSTox, 2008).
# Values joined by “and” are separate entries in the source; they are usually repeats but may differ in a detail not shown here. Equal values may be shown once. Active and inactive are the calls of the source.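 How the source made its calls: active means at least one rat sex group has a carcinogenic potency value and tumor site recorded; inconclusive means only rat studies were judged inadequate by the national testing program; inactive means no potency or tumor site, with negative rat experiments.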 *1 amine or outer side, *2 acyl side, *3 side chain or, on linkers, in order; H or OH if unused. Where a SMILES comes first, the peptide text is derived from it. Bridges are numbered along the chain shown (N, C = ends). Roman numbers before positions name the chains, in order. [ ]: non-standard residue; d: D form. Actinocin(1to9) = Cc1c2oc3c(C)ccc(C(=O)[*:2])c3nc-2c(C(=O)[*:1])c(N)c1=O; d(aIle) = CC[C@H](C)[C@@H](N)C(=O)O; NMeV = CN[C@H](C(=O)O)C(C)C; Sar = CNCC(=O)O
# Test system: rat chronic carcinogenicity bioassay, TD50
# Assay: DSSTox (CPDBAS) Carcinogenic Potency Database Summary Rat Bioassay Results
# Details: for Potency: stronger effect = lower value
# Excerpt: The Carcinogenic Potency Database (CPDB) is a unique and widely used international resource of the results of over 6500 chronic, long-term animal cancer tests on over 1500 chemical substances. The CPDB provides easy access to the bioassay literature, with qualitative and quantitative analyses of both positive and negative experiments that have been published over the past 50 years in the general literature and by the National Cancer Institute/National Toxicology Program. The CPDB standardizes the diverse literature of cancer bioassays that vary widely in protocol, histopathological examination and nomenclature, and in the published author's choices of what information to provide in their papers. Results are reported in the CPDB for tests in rats, mice, hamsters, dogs, and nonhuman primates, and are based on the most positive result among all experiments for each sex-species. The DSSTox CPDBAS (all species) file incorporates data from the CPDB Summary Tables for the full list of over 1500 chemical substances tested in at least one species. Summary bioassay results for Rat (TD50, tumor sites, male, female, both sexes) are provided in the CPDB Summary Tables and the DSSTox CPDBAS file for over 1200 chemical substances.
# TD50 is a standardized quantitative measure of carcinogenic potency (analogous to an LD50) and is reported in the CPDB Summary Table for each species. Activity Score for actives is computed by mapping of LOG10 (1/TD50_Rat_mmol) activity values spanning range [MIN, MAX] onto Integer 1-100 Activity Score range, where 100 is highest potency and 1 is lowest: Activity Score = 100 * INTEGER[(log10(1/Activity) - MIN)/(MAX - MIN)]. If activity is reported but no TD50_Rat_mmol value is computed, such as for a mixture, the Activity Score is assigned the activity value "50". […] Target sites are reported for each sex-species group with a positive result in the CPDB on the basis of a positive author's opinion for the particular site, using all results from both the general literature and NCI/NTP bioassays. If a chemical has two or more target sites listed, the results may be from different experiments, and a single site may be a target organ in more than one experiment, as well. Blank entry in TargetSites field indicates no results reported.
# [1] = TD50_Rat_Note: no positive results, TargetSites_Rat_Female: no positive results
# [2] = TD50_Rat_Note: no positive results
# [3] = TD50_Rat_Note: only experiment is NCI/NTP bioassay inadequate, TargetSites_Rat_Female: NTP bioassay inadequate
# [4] = TD50_Rat_Note: TD50 is harmonic mean of more than one positive test, TargetSites_Rat_Female: kidney, urinary bladder
# [5] = TD50_Rat_Note: TD50 is harmonic mean of more than one positive test, TargetSites_Rat_Female: liver
# [6] = TD50_Rat_Note: TD50 is harmonic mean of more than one positive test
# [7] = TD50_Rat_Note: TD50 is harmonic mean of more than one positive test, TargetSites_Rat_Female: stomach
structure (smiles),measurement,setting,value
CN1C2CC[C@@H]1CC(NC(=O)c1cc(Cl)cc3c1OC(C)(C)C3)C2 (some centres undefined),outcome,[1],inactive; no positive results
CCCCCCCCCCCCCCCC(=O)OC/C=C(C)/C=C/C=C(C)/C=C/C1=C(C)CCCC1(C)C,outcome,[2],inactive; no positive results
CC(O)CN(CC(C)O)CC(C)O (centres undefined),outcome,[2],inactive; no positive results
CCNc1nc(Cl)nc(NC(C)C)n1,Potency,"TD50_Rat_Note: TD50 is harmonic mean of more than one positive test, TargetSites_Rat_Female: hematopoietic system, mammary gland, uterus",36.6 mg/kg/day
Cc1cnc(NC(=O)C2=C(O)c3ccccc3S(=O)(=O)N2C)s1,outcome,[1],inactive; no positive results
O=C([O-])c1cc(N=Nc2ccc(-c3ccc(N=Nc4c(O)ccc(N=Nc5cc(S(=O)(=O)[O-])ccc5[O-])c4[O-])cc3)cc2)ccc1O.[Cu+2].[Na+].[Na+],Potency,TargetSites_Rat_Female: liver,2.07 mg/kg/day
CCN(CC)N=O,Potency,"TD50_Rat_Note: TD50 is harmonic mean of more than one positive test, greater than ten-fold variation among TD50 values for positive res, TargetSites_Rat_Female: esophagus, liver, oral cavity, stomach",0.0265 mg/kg/day
C=CCN(N=O)C(N)=O,Potency,"TD50_Rat_Note: TD50 is harmonic mean of more than one positive test, TargetSites_Rat_Female: mammary gland, stomach, uterus",0.341 mg/kg/day
Brc1cc(-c2ccc(Br)c(Br)c2Br)cc(Br)c1Br,outcome,[1],inactive
O=P1(N(CCCl)CCCl)NCCCO1 (centres undefined),Potency,"TD50_Rat_Note: TD50 is harmonic mean of more than one positive test, greater than ten-fold variation among TD50 values for positive res, TargetSites_Rat_Female: all tumor bearing animals, TargetSites_Rat_BothSexes: hematopoietic system, nervous system, urinary bladder",2.21 mg/kg/day
C=Cc1cccc[n+]1[O-],outcome,[1],inactive
Cc1cc(O)c2c(c1)C(=O)c1cc(O)cc(O)c1C2=O,outcome,[1],inactive; no positive results
CC1(C)[C@@H](O)CC[C@]2(C)[C@H]3C(=O)C=C4[C@@H]5C[C@@](C)(C(=O)O)CC[C@]5(C)CC[C@@]4(C)[C@]3(C)CC[C@@H]12,outcome,[2],inactive; no positive results
CN(N=O)c1ccc(F)cc1,Potency,,0.255 mg/kg/day
O=S1(=O)CC=CC1,outcome,[1],inactive; no positive results
CNC[C@H](O)c1ccc(O)c(O)c1,outcome,[3],ntp bioassay inadequate
O=C(O)c1cc(=O)[nH]c(=O)[nH]1,outcome,[2],inactive; no positive results
"CC[C@H](C)[C@H]1NC(=O)[C@@H](NC(=O)c2c3nc4c(C(=O)N[C@@H]5C(=O)N[C@H](C(C)C)C(=O)N6CCC[C@H]6C(=O)N(C)CC(=O)N(C)[C@@H](C(C)C)C(=O)O[C@@H]5C)ccc(C)c4oc-3c(C)c(=O)c2N)[C@@H](C)OC(=O)[C@H](C(C)C)N(C)C(=O)CN(C)C(=O)[C@@H]2CCCN2C1=O (I: T[d(aIle)]P[Sar][NMeV] / II: T[dV]P[Sar][NMeV]; ester I:1-I:C, II:1-II:C; linker I:N-II:N via Actinocin(1to9))",outcome,[2],inactive; no positive results
S=C(SN1CCOCC1)N1CCOCC1,Potency,[4],90.8 mg/kg/day
CNC(=O)Oc1cc(C)c(N(C)C)c(C)c1,outcome,[1],inactive; no positive results
O=NN1CC=CCC1,Potency,"TD50_Rat_Note: TD50 is harmonic mean of more than one positive test, harmonic mean of TD50 includes a value for upper 99% confidence li, TargetSites_Rat_Female: esophagus, liver, stomach, vascular system",0.0601 mg/kg/day
Oc1c(Cl)cc(Cl)c(Cl)c1Cc1c(O)c(Cl)cc(Cl)c1Cl,outcome,[1],inactive; no positive results
C=CC1CC=CCC1 (centres undefined),outcome,[3],ntp bioassay inadequate
ClC(Cl)C(Cl)Cl,outcome,[1],inactive; no positive results
CCOc1ccc(NC(C)=O)cc1,Potency,"TD50_Rat_Note: TD50 is harmonic mean of more than one positive test, TargetSites_Rat_Female: ear Zymbals gland, mammary gland, nasal cavity, urinary bladder",1250 mg/kg/day
ClC/C=C/CCl,Potency,"TD50_Rat_Note: TD50 is harmonic mean of more than one positive test, TargetSites_Rat_Female: nasal cavity",0.297 mg/kg/day
O=NN1CCC[C@H]1C(=O)O,outcome,[1],inactive; no positive results
Cc1cc(C)nc(-c2ccc([N+](=O)[O-])o2)n1,Potency,"TD50_Rat_Note: harmonic mean of TD50 includes a value for upper 99% confidence limit from study with 100% tumor incidence but no lifeta, TargetSites_Rat_Female: kidney, mammary gland, small intestine, stomach, vascular system",1.39 mg/kg/day
CC1(C)C(=O)Nc2ccc(C3=NNC(=O)CC3)cc21,Potency,"TD50_Rat_Note: TD50 is harmonic mean of more than one positive test, TargetSites_Rat_Female: adrenal gland",2.01 mg/kg/day
O=C(O)CN(CC(=O)O)CC(=O)O,Potency,[4],1770 mg/kg/day and 370 mg/kg/day
Brc1cc(Br)c(-c2cc(Br)c(Br)cc2Br)cc1Br,Potency,[5],0.322 mg/kg/day
c1ccc(Nc2ccc3ccccc3c2)cc1,outcome,[1],inactive; no positive results
ClCC(Cl)Cl,outcome,[1],inactive; no positive results
N=c1ccn2c(n1)O[C@H]1[C@H](O)[C@@H](CO)O[C@H]12,outcome,[1],inactive; no positive results
N#CS,outcome,[1],inactive; no positive results
O=NN1CCCCCCC1,Potency,[6],0.0378 mg/kg/day
O=NN1CCSCC1,Potency,"TD50_Rat_Note: TD50 is harmonic mean of more than one positive test, TargetSites_Rat_Female: esophagus, oral cavity",5.39 mg/kg/day
CN(C)C(=O)Nc1cccc(C(F)(F)F)c1,outcome,[1],inactive; no positive results
CC(C)(C)c1cc([N+](=O)[O-])cc([N+](=O)[O-])c1OS(C)(=O)=O,outcome,[1],inactive; no positive results
CN(N=O)C(=O)Nc1nc2ccccc2s1,Potency,TargetSites_Rat_BothSexes: stomach,1.13 mg/kg/day
CN1[C@@H]2CC(OC(=O)[C@@H](CO)c3ccccc3)C[C@H]1[C@@H]1O[C@@H]12 (some centres undefined),outcome,[1],inactive; no positive results
Cl/C=C/CCl,Potency,[7],94 mg/kg/day
same,Potency,[1],100 mg/kg/day
ClC1(Cl)C2(Cl)C3C4(Cl)C1(Cl)C1(Cl)C4(Cl)C(Cl)(Cl)C3(Cl)C21Cl (centres undefined),Potency,,1.46 mg/kg/day
C=CCO,outcome,[1],inactive; no positive results
C/C=C/C=O,Potency,,4.2 mg/kg/day
O=NN(c1ccccc1)c1ccccc1,Potency,"TD50_Rat_Note: TD50 is harmonic mean of more than one positive test, TargetSites_Rat_Female: urinary bladder",167 mg/kg/day
C1C2OC2C2C1C1CC2C2OC12 (centres undefined),outcome,[2],inactive; no positive results
C=CC(N)=O,Potency,"TD50_Rat_Note: TD50 is harmonic mean of more than one positive test, TargetSites_Rat_Female: clitoral gland, mammary gland, nervous system, oral cavity, thyroid gland, uterus",3.75 mg/kg/day
O=CC1CO1 (centres undefined),outcome,[1],inactive
COc1cc(NC(=O)C(N=Nc2ccc(-c3ccc(N=NC(C(C)=O)C(=O)Nc4cc(OC)c(Cl)cc4OC)c(Cl)c3)cc2Cl)C(C)=O)c(OC)cc1Cl (centres undefined),outcome,"TD50_Rat_Note: no positive results, TargetSites_Rat_BothSexes: no positive results",inactive
CCCN=[N+]([O-])CCC,Potency,TD50_Rat_Note: harmonic mean of TD50 includes a value for upper 99% confidence limit from study with 100% tumor incidence but no lifeta,0.000241 mg/kg/day
Cn1c(=O)c2[nH]cnc2n(C)c1=O,outcome,[1],inactive; no positive results
CN=C(NC#N)NCCSCc1nc[nH]c1C,outcome,[1],inactive; no positive results
C=CCN=C=S,Potency,TargetSites_Rat_Female: no positive results,96 mg/kg/day
C/C=C/C=C/C=O,Potency,[7],62.2 mg/kg/day
Clc1nc(Cl)nc(Nc2ccccc2Cl)n1,outcome,[1],inactive; no positive results
CC(=O)N(O)c1ccc2c(c1)Cc1ccccc1-2,Potency,[5],0.988 mg/kg/day
COP(=S)(OC)SCn1nnc2ccccc2c1=O,outcome,[1],inactive; no positive results
CC(Oc1c(Cl)cccc1Cl)C1=NCCN1 (centres undefined),outcome,[1],inactive; no positive results
CC[C@H]1OC(=O)[C@H](C)[C@@H](O[C@H]2C[C@@](C)(OC)[C@@H](O)[C@H](C)O2)[C@H](C)[C@@H](O[C@@H]2O[C@H](C)C[C@H](N(C)C)[C@H]2O)[C@](C)(O)C[C@@H](C)C(=O)[C@H](C)[C@@H](O)[C@]1(C)O,outcome,[1],inactive; no positive results
O=C1c2ccccc2C(=O)c2c(O)cccc21,Potency,[6],93.5 mg/kg/day
ClCOCCl,Potency,,0.00357 mg/kg/day
O=C(N[C@H](CO)[C@H](O)c1ccc([N+](=O)[O-])cc1)C(Cl)Cl,outcome,[1],inactive
S=C1NCCN1,Potency,"TD50_Rat_Note: TD50 is harmonic mean of more than one positive test, greater than ten-fold variation among TD50 values for positive res, TargetSites_Rat_Female: thyroid gland, TargetSites_Rat_BothSexes: liver",8.13 mg/kg/day
C[C@H](CCc1ccccc1)NC[C@H](O)c1ccc(O)c(C(N)=O)c1,outcome,[1],inactive; no positive results
O=S(=O)(O)CCS,outcome,[2],inactive; no positive results
C/C=C1/C[C@@H](C)[C@](O)(CO)C(=O)OCC2=CC[N+]3([O-])CC[C@@H](OC1=O)[C@@H]23 (some centres undefined),Potency,[5],0.716 mg/kg/day
Cn1cc(OCC(O)CNC(C)(C)C)c2ccccc2c1=O (centres undefined),outcome,[1],inactive; no positive results
